Measurements reported in patent US10220022B2, “Compositions and methods employing Wolbachia FtsZ as a target for Albendazole sulfone” (The Regents of the University of California, priority 2011, dated 2019).

Legend:
M. tuberculosis FtsZ = M. tuberculosis FtsZ (Mycobacterium tuberculosis, UniProt P9WN95); details: cited from earlier work
Wolbachia = Wolbachia titer in Drosophila oogenesis after drug feeding; format: in vivo; details: 24-hour treatment, counts from single oocyte focal planes; DMSO control 225+/−18
From the text: (§1) Drug feeding conditions: Fly feeding we done as previously described.
(§2) Staining: Drosophila Ovary staining was done with PI, anti-tubuli. Drosophila Embryo staining was done with anti-FtsZ. Brugia microfilarial staining was done with PI, anti-tubulin, and anti-FtsZ.
As Albendazole is already a widely used, FDA-approved drug, we proceeded to test it and the primary metabolites Albendazole sulfoxide and Albendazole sulfone for anti-Wolbachia effects in Drosophila oogenesis. This system provides a high-precision method for assessing Wolbachia titer in a well-characterized developmental context.

[1] = test system: Wolbachia-infected JW18 cells; test: High-throughput screen for compounds reducing Wolbachia infection of JW18 cells; format: cell-based, Drosophila; details: 100 uM per well, 5-day incubation at 25 C, 3 replicates
Experimental: Cells were plated in 384-well, clear bottom plates (Griener Bio-one) pre-coated with 0.5 mg/mL Concanavalin A. JW18 cells were added to 22 columns, and JW18TET cells were added to the remaining 2 columns at a dilution of 6500 cells per well. After the cells adhered to the plates, compounds were transferred into 20 columns of JW18 cells in the center of the plate using a Janus MDT pin tool. The final concentration of compound was 100 uM per well. All treatments were distributed into 3 plate replicates.
After a 5-day incubation with the compounds at 25 C, the cells were prepared for imaging. Cells were fixed for 20 minutes in 4% formaldehyde and rinsed with PBS using an automated BioTek liquid handler. All staining solutions were administered using a Multidrop robot, with extensive rinsing between treatments. The primary antibody, mouse anti histone (MAB052, Millipore), was used at 1:1250 in PBS/0.1% Triton. Secondary antibody goat anti-mouse Alexa 594 (Invitrogen) was used at 1:1250. DAPI was used as a saturated solution, diluted to a final concentration of 1:40. After staining, PBS+Azide was added to all wells of the plates.
Stained treatment plates were imaged using the MetaExpress Micro system (Molecular Devices, Sunnyvale Calif.). 10 images were acquired per well at 40× magnification. These images were next analyzed using customized journaling software provided by Molecular Devices. The journal first masks any areas where clumps of cells are detected, based upon intensity of the Jupiter-GFP. The boundaries of the remaining cells and their nuclei are recognized based upon the Jupiter-GFP and anti-histone stains. A mask is applied to the nuclei, to obscure the hi stone and DAPI signal from those areas. A threshold for DAPI fluorescence detection is set to detect as much Wolbachia as possible in JW18 control cells while minimizing detection of background DAPI signal in JW18TET control cells. Then this cytoplasmic DAPI level, read to indicate Wolbachia, is scored in the cytoplasm of individual cells to determine whether each cell is infected with Wolbachia. The cutoff value distinguishing “infected” from “uninfected” cells is 4000-5000 fluorescence units per cell.
A spreadsheet from the journal indicates the quantity of Wolbachia-infected cells versus total cells measured in each well. A Z′ factor is calculated for each plate based upon the average frequency of cell infection for JW18 and JW18TET control cells. […] An initial hit range is calculated to lie between the JW18 average infection frequency−3 standard deviations, and the average JW18TET infection frequency+3 standard deviations. To further refine identification of hits, we also calculated an average infection frequency for all JW18 cells on the plate (treated or not), as most treatment wells are expected to be indistinguishable from untreated controls. Wells are that lie within 3 standard deviations of the mean are exluded, and remaining wells are classified as hits within that replicate. Hit wells that are identified in at least 2 out of 3 replicates are considered to be finalized hits.
In this screen, 3081 compounds froth the National Cancer Institute were used. […] Cells were incubated for 5 days with each compound, then fixed, stained, and imaged using automated robotics (FIG. 2). Customized analysis software was used to compare the images from compound-treated wells to the control cells to assay for significant changes in the quantity of Wolbachia-infected cells. All treatment plates were run in triplicate.

Streptococcus pyrogenes = details: prior screen; cited from earlier work
beta-tubulin = details: relative to Albendazole sulfoxide; cited from earlier work
[2] = test system: oocyte microtubule cytoskeleton; test: Immunolabeling of oocyte microtubules; format: in vivo, Drosophila; details: immunolabeling of the microtubules, stage 10A oocytes
From the text: as §2
(§3) To address whether Albendazole sulfone acts on Wolbachia by disrupting the oocyte microtubule cytoskeleton, a combination of approaches was used. It has previously been shown that Wolbachia concentrate at the oocyte posterior cortex in a microtubule-dependent manner. […] We also examined the cytoskeleton directly by immunolabeling the microtubules.

Wolbachia FtsZ = test: FtsZ immunostaining in treated Brugia malayi microfilariae; details: compound fed to Brugia malayi microfilariae
From the text: as §2
(§4) To investigate whether Albendazole sulfone disrupts Walbachia FtsZ, we fed this compound to Brugia malayi microfilariae, which carry Wolbachia as an essential endosymbiont. […] This is consistent with the predicted benzimidazole susceptibility of B. malayi beta tubulin (FIG. 5).
(§5) In view of the above the inventors posed the questions: By what mechanism does Albendazole sulfone act against Wolbachia FtsZ? And is FtsZ disruption a consequence of host microtubule disassembly, or due to a separate effect on FtsZ by Albendazole sulfone? […] To further test whether Wolbachia FtsZ relies on host microtubules, we also treated Brugia with the microtubule-disrupting drug Colchicine.

[3] = test system: oocyte microtubule cytoskeleton; test: Posterior Wolbachia localization in treated oocytes; format: in vivo; details: treated Drosophila oocytes; DMSO controls 95%
From the text: as §1, §2, §3

B. malayi microtubules = test: Microtubule staining of treated Brugia malayi microfilariae; details: compound fed to Brugia malayi microfilariae
From the text: as §2, §4, §5

Sequence of M. tuberculosis FtsZ (P9WN95 whole entry): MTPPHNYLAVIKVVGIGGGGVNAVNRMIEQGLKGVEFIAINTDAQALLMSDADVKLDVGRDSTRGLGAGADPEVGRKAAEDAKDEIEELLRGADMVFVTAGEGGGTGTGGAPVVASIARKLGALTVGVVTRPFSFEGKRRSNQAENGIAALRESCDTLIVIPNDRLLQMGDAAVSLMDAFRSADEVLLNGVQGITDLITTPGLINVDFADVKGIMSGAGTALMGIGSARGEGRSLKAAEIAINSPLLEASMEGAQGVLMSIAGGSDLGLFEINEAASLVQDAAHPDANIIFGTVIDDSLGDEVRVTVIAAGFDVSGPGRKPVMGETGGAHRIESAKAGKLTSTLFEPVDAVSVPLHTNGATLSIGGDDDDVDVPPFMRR

Question: Which “effect on M. tuberculosis FtsZ” value (M. tuberculosis FtsZ) does the source give for CCCSc1ccc2nc(NC(=O)OC)[nH]c2c1 [Albendazole] here?
Answer: unaffected

Question: What about the Wolbachia per oocyte (Wolbachia) of the same compound?
Answer: 194+/−20 Wolbachia per oocyte

Question: For O=[N+]([O-])/C=C/c1cc2ccccc2[nH]1 [NSC150982], which “reduction of Wolbachia-infection frequency (screen hit)” value (“reduction” below) [1] is on record?
Answer: anti-Wolbachia

Question: With CN1CCN(c2ccc([N+](=O)[O-])c3no[n+]([O-])c23)CC1 [NSC207895] as the compound, how does the “reduction” value [1] read?
Answer: hits

Question: With CC[C@@]1(O)C[C@H](O[C@H]2C[C@H](N(C)C)[C@H](O[C@H]3C[C@@H]4O[C@H]5CC(=O)[C@H](C)O[C@H]5O[C@@H]4[C@H](C)O3)[C@H](C)O2)c2c(cc3c(c2O)C(=O)c2c(O)ccc(O)c2C3=O)[C@H]1C(=O)OC [Cinerubin B] as the compound, how does the “reduction” value [1] read?
Answer: hits

Question: Which “reduction” value [1] does the source give for CCN1/C(=C/C(C)=C/c2sc3ccccc3[n+]2CC)Sc2ccccc21.[I-] [NSC96932] here?
Answer: hits

Question: And the antibacterial activity (Streptococcus pyrogenes)?
Answer: exert antibacterial activity

Question: Which Wolbachia per oocyte (Wolbachia) does the source give for C[C@H]1c2cccc(O)c2C(=O)C2=C(O)[C@]3(O)C(=O)C(C(N)=O)=C(O)[C@@H](N(C)C)[C@@H]3[C@@H](O)[C@@H]21 [Doxycycline] here?
Answer: 126+/−11 Wolbachia per oocyte

Question: Which “reduction” value [1] does the source give for O=C(CSc1nc2ccccc2s1)c1sc2sc3ccccc3[n+]2c1O [NSC339601] here?
Answer: anti-Wolbachia

Question: For CCCS(=O)(=O)c1ccc2nc(NC(=O)OC)[nH]c2c1 [Albendazole sulfone], which “potency as disrupter of beta-tubulin” value (beta-tubulin) is on record?
Answer: far less potent disrupter of beta-tubulin than Albendazole sulfoxide

Question: And the oocyte microtubule structure [2]?
Answer: fibrillar microtubule arrays

Question: What about the Wolbachia per oocyte (Wolbachia) of the same compound?
Answer: 150+/−13 Wolbachia per oocyte

Question: And the “effect on Wolbachia FtsZ” value (Wolbachia FtsZ)?
Answer: FtsZ was also disrupted in most

Question: What about the “oocytes with posterior Wolbachia localization” value [3] of the same compound?
Answer: 93%

Question: What about the “effect on Brugia host microtubules” value (B. malayi microtubules) of the same compound?
Answer: widespread disruption of B. malayi microtubules

Question: With COC1=C(C)C(=O)C2=C(C1=O)[C@H](COC(N)=O)[C@@]1(O)[C@@H]3[C@H](CN21)N3C (stereo partly drawn) [Mitomycin B] as the compound, how does the “reduction” value [1] read?
Answer: hits

Question: Which Wolbachia per oocyte (Wolbachia) does the source give for CCC[S+]([O-])c1ccc2[nH]c(NC(=O)OC)nc2c1 (stereo not drawn) [Albendazole sulfoxide] here?
Answer: 255+/−27 Wolbachia per oocyte

Question: Which results are given for COc1cc2c(c(OC)c1OC)-c1ccc(OC)c(=O)cc1[C@@H](NC(C)=O)CC2 [Colchicine, reference compound]?
Answer: oocyte microtubule structure [2]: devoid of filamentous structure; effect on Wolbachia FtsZ (Wolbachia FtsZ): FtsZ remained concentrated near Wolbachia DNA; oocytes with posterior Wolbachia localization [3]: 21%; effect on Brugia host microtubules (B. malayi microtubules): severely disrupted host microtubules
